Data reported in US8901105B2, “Prodrug derivatives of (E)-N-methyl-N-((3-M ethylbenzofuran-2-yl)methyl)-3-(7-oxo-5,6,7,8-tetrahydro-1,8-naphthyridin-3-yl)acrylamide” (Affinium Pharmaceuticals, Inc., priority 2012, dated 2014).
Counter-ions that a name gives are not always drawn.

Assay: Solution stability in 5% dextrose in water (D5W)
Assay type: physicochemical
[1] = 1 mg/mL solution, 5° C., 4 hours
[2] = 1 mg/mL solution, 5° C., 24 hours
[3] = 1 mg/mL solution, 5° C., 48 hours
[4] = 1 mg/mL solution, −20° C., 48 hours
[5] = 25 mg/mL solution, 5° C., 4 hours
[6] = 25 mg/mL solution, 5° C., 24 hours
[7] = 25 mg/mL solution, 5° C., 48 hours
[8] = 25 mg/mL solution, RT, 24 hours
[9] = 25 mg/mL solution, RT, 48 hours
[10] = 25 mg/mL solution, −20° C., 48 hours

## Cc1c(CN(C)C(=O)/C=C/c2cnc3c(c2)CCC(=O)N3COP(=O)(O)O)oc2ccccc12 [Compound 10, (E)-6-[(N-methyl-((3-methylbenzofuran-2-yl)methyl)amino)-3-oxoprop-1-en-1-yl)-2-oxo-3,4-dihydro-1,8-naphthyridin-1(2H)-yl]methylphosphate bis-ethanolammonium salt]
[1]
  Solution stability: 0.99 mg/mL
  Solution stability % Area: 99.4 % Area
[2]
  Solution stability: 0.99 mg/mL
  Solution stability % Area: 98.8 % Area
[3]
  Solution stability: 1.00 mg/mL
  Solution stability % Area: 98.1 % Area
1 mg/mL solution, Initial
  Solution stability: 1.00 mg/mL
  Solution stability % Area: 99.5 % Area
1 mg/mL solution, RT, 4 hours
  Solution stability: 0.99 mg/mL
  Solution stability % Area: 99 % Area
1 mg/mL solution, RT, 24 hours
  Solution stability: 0.96 mg/mL
  Solution stability % Area: 96.1 % Area
1 mg/mL solution, RT, 48 hours
  Solution stability: 0.95 mg/mL
  Solution stability % Area: 93.1 % Area
[4]
  Solution stability: 0.99 mg/mL
  Solution stability % Area: 99.3 % Area
[5]
  Solution stability: 24.9 mg/mL
  Solution stability % Area: 99.3 % Area
[6]
  Solution stability: 24.5 mg/mL
  Solution stability % Area: 98.7 % Area
[7]
  Solution stability: 24.5 mg/mL
  Solution stability % Area: 98.1 % Area
25 mg/mL solution, Initial
  Solution stability: 24.4 mg/mL
  Solution stability % Area: 99.6 % Area
25 mg/mL solution, RT, 4 hours
  Solution stability: 24 mg/mL
  Solution stability % Area: 98.9 % Area
[8]
  Solution stability: 23.8 mg/mL
  Solution stability % Area: 95.6 % Area
[9]
  Solution stability: 23 mg/mL
  Solution stability % Area: 92.1 % Area
[10]
  Solution stability: 24.6 mg/mL
  Solution stability % Area: 99.3 % Area
